Literature values as cited in patent publication US20040033271A1, “Methods for contemporaneous administration of levamisole and 5-fluorouracil” (priority 2003, published 2004).
Like-named read-outs stand apart in the source and are kept apart here.

How the values were obtained:
bladder cancer = settings: rats
[1] = levamisole in humans
[2] = not given; remark: listed apart in the source
[3] = not given; remark: listed apart in the source
[4] = guinea pigs
A375 melanoma cell line = settings: most sensitive cell line
[5] = system: Human colorectal cancer xenografts; settings: levamisole alone
breast cancer [6] = settings: post-surgical levamisole, large study
Dukes' C. colon cancer = settings: levamisole alone
colorectal cancer = settings: added to leucovorin/5-FU regimen after surgical resection
breast cancer [7] = settings: superimposed on CAF; no same-day 5-FU and levamisole

Structure (SMILES): Brc1ccc([C@H]2CN3CCSC3=N2)cc1 [4-bromo analogue of levamisole, 4-bromolevamisole]
- phosphatase inhibition (phosphatases): capable of inhibiting phosphatases

Structure (SMILES): Oc1ccc([C@H]2CN3CCSC3=N2)cc1 [4-hydroxy analogue of levamisole, 4-hydroxylevamisole]
- phosphatase inhibition (phosphatases): capable of inhibiting phosphatases

Structure (SMILES): c1ccc([C@@H]2CN3CCSC3=N2)cc1 [Dexamisole]
- potentiation of BCNU compared with levamisole (bladder cancer): less active

Structure (SMILES): c1ccc([C@H]2CN3CCSC3=N2)cc1 [levamisole]
- serum half-life [1]: about four
- time to peak plasma concentration (after oral levamisole administration): 2 h
- difference between the highest and lowest AUC (area under curve) (twenty cancer patients, oral levamisole 50 mg t.i.d.): seven
- adverse effect of increased oral dose ([2]; five-fold increase in the recommended oral levamisole dose): severe nausea and vomiting
- maximum tolerable dose ([2]; oral t.i.d. for five days with daily 5-FU, repeated every five weeks): 100 mg/m^2
- time after administration at which cardiac effects are seen ([3]; bolus IV, stated for rats and guinea pigs together): ≤ 60 s
- IV dose at which cardiotoxicity was observed (as low as) ([3]; rats, IV): 2 mg/kg
- IV dose at which ECG irregularities were seen [4]: 10 mg/kg
- levamisole concentration affecting colony formation (A375 melanoma cell line; in presence of 5-FU): 30 µg/mL
- levamisole concentration affecting colony formation (A375 melanoma cell line; molar value in brackets): 0.125 µM
- effect on xenografts [5]: unaffected
- recurrence (breast cancer [6]): increase in recurrence
- clinical benefit (Dukes' C. colon cancer): no benefit
- effect of addition of levamisole (colorectal cancer): no additive effect
- effect of added levamisole (breast cancer [7]): modest effects over untreated historical controls
